Legend:
[1] = target: Phosphatidylinositol 5-phosphate 4-kinase type-2 gamma (Homo sapiens) (UniProt Q8TBX8)
[2] = target: Cyclin-dependent kinase 15 (Homo sapiens) (UniProt Q96Q40)
[3] = target: BMP-2-inducible protein kinase (Homo sapiens) (UniProt Q9NSY1)
[4] = target: Serine/threonine-protein kinase ULK1 (Homo sapiens) (UniProt O75385)
[5] = target: Serine/threonine-protein kinase WNK2 (Homo sapiens) (UniProt Q9Y3S1)
[6] = target: Mitogen-activated protein kinase kinase kinase 2 (Homo sapiens) (UniProt Q9Y2U5)
[7] = target: Fibroblast growth factor receptor 3 (Homo sapiens) (UniProt P22607)
[8] = target: Macrophage colony-stimulating factor 1 receptor (Homo sapiens) (UniProt P07333)
[9] = system: Tyrosine-protein kinase ABL1 (Homo sapiens), P00519 [F317I]
[10] = system: Mast/stem cell growth factor receptor Kit (Homo sapiens), P10721 [L576P]
[11] = target: Casein kinase I isoform alpha (Homo sapiens) (UniProt P48729)
Chain of Casein kinase I isoform alpha (Homo sapiens) (P48729 2-337 limits assumed): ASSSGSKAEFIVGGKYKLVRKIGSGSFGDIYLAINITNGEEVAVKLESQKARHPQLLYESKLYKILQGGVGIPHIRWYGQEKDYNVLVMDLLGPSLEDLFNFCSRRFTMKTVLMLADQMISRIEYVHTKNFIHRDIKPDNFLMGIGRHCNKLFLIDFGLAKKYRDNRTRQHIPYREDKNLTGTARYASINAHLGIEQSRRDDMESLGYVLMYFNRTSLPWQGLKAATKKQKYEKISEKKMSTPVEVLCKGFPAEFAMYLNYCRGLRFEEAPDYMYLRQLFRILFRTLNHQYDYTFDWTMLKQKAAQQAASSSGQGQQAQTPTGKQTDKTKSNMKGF

[12] = target: Activin receptor type-1B (Homo sapiens) (UniProt P36896)
[13] = target: Ephrin type-B receptor 2 (Homo sapiens) (UniProt P29323)
Chain of Ephrin type-B receptor 2 (Homo sapiens) (P29323 whole entry): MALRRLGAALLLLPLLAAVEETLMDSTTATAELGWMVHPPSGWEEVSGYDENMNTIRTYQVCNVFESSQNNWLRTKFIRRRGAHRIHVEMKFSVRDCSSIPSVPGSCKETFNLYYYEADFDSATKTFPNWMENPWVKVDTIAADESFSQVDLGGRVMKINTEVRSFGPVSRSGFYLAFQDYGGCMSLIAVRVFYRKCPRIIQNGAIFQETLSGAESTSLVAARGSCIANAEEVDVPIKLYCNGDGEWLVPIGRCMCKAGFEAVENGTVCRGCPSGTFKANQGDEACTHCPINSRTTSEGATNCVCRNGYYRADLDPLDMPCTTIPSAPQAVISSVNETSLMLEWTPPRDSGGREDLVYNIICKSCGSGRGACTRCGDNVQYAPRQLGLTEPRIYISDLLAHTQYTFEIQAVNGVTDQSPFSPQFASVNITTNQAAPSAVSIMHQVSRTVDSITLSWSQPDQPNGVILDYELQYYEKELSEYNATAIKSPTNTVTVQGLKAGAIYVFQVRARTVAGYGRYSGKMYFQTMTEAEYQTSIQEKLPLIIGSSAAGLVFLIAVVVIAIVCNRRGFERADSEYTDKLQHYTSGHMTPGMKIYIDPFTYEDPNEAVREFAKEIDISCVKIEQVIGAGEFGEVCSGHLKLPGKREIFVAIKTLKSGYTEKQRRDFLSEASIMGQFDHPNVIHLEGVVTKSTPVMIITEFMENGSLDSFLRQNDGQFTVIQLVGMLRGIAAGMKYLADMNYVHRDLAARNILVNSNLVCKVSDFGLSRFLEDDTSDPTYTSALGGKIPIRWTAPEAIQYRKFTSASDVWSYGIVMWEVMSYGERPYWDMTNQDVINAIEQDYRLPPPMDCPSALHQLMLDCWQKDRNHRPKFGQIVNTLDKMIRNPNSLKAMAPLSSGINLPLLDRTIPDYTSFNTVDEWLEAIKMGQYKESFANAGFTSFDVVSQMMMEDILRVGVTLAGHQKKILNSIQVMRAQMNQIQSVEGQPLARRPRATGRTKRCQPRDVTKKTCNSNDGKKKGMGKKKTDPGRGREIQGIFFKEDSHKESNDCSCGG

[14] = target: MAP kinase-interacting serine/threonine-protein kinase 1 (Homo sapiens) (UniProt Q9BUB5)
Chain of MAP kinase-interacting serine/threonine-protein kinase 1 (Homo sapiens) (Q9BUB5 whole entry, looked up): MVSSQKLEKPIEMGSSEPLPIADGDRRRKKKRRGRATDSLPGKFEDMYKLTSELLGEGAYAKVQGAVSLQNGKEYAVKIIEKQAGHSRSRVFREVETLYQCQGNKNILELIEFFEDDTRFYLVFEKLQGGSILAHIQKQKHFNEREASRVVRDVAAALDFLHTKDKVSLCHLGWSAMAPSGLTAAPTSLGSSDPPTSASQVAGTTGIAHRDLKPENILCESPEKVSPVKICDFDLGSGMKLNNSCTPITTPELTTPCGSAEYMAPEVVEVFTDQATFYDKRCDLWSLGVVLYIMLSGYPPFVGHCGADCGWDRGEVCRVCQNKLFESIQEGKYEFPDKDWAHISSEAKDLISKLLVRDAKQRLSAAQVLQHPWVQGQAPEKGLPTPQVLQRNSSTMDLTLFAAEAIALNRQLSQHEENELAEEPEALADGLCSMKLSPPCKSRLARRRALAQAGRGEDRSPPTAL

[15] = target: Ribosomal protein S6 kinase alpha-6 (Homo sapiens) (UniProt Q9UK32)
[16] = target: Myosin-IIIb (Homo sapiens) (UniProt Q8WXR4)
[17] = target: Cyclin-dependent kinase 4 (Homo sapiens) (UniProt P11802)
Chain of Cyclin-dependent kinase 4 (Homo sapiens) (P11802 whole entry): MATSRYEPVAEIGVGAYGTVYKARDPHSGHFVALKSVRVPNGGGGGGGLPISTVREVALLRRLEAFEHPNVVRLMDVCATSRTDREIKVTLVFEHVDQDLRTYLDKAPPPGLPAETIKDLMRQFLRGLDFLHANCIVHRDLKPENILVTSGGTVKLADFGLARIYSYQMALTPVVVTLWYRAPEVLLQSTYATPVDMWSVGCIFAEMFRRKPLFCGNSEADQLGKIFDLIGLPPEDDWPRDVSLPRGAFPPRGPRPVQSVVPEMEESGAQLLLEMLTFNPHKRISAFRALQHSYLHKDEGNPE

[18] = target: Cyclin-dependent kinase 4 (Homo sapiens) (UniProt P11802); remark: listed apart in the source
[19] = target: ALK tyrosine kinase receptor (Homo sapiens) (UniProt Q9UM73)
[20] = system: Epidermal growth factor receptor (Homo sapiens), P00533 [UNDEFINED MUTATION]
[21] = target: Serine/threonine-protein kinase tousled-like 1 (Homo sapiens) (UniProt Q9UKI8)
[22] = system: Proto-oncogene tyrosine-protein kinase receptor Ret (Homo sapiens), P07949 [V804L]
Chain of Proto-oncogene tyrosine-protein kinase receptor Ret (Homo sapiens), P07949 [V804L] (P07949 whole entry V804L): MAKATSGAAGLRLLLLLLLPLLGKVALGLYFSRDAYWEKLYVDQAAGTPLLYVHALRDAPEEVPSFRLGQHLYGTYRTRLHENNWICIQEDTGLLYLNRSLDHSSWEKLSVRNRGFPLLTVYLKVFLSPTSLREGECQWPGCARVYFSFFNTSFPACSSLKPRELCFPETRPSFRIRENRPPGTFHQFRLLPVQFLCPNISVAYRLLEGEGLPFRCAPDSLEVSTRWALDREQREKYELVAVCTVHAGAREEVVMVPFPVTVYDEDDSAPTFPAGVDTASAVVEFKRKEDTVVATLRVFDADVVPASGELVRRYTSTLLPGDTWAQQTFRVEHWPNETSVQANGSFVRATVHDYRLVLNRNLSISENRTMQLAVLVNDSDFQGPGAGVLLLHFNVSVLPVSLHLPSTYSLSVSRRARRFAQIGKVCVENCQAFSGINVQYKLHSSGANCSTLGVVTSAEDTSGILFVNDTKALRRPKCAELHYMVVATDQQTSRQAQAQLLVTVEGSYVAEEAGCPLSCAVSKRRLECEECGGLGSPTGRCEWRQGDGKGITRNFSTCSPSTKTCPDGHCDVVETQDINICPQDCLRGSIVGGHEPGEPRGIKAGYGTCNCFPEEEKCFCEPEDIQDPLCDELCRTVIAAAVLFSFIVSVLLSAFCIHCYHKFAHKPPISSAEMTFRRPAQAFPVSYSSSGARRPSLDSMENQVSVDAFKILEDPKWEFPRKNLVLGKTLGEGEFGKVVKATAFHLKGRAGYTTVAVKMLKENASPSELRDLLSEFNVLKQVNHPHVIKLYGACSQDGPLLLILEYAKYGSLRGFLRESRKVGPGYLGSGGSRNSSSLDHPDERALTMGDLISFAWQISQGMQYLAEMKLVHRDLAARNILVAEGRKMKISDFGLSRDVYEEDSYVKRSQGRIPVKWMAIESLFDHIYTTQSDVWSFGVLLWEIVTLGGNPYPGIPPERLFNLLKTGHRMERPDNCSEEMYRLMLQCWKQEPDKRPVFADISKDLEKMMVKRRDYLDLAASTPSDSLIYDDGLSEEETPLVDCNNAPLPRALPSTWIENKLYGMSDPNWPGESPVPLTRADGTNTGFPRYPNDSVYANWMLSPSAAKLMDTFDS

[23] = target: Serine/threonine-protein kinase MRCK gamma (Homo sapiens) (UniProt Q6DT37)
[24] = target: Angiopoietin-1 receptor (Homo sapiens) (UniProt Q02763)
[25] = target: Serine/threonine-protein kinase TBK1 (Homo sapiens) (UniProt Q9UHD2)
[26] = target: Serine/threonine-protein kinase DCLK2 (Homo sapiens) (UniProt Q8N568)
[27] = target: Serine/threonine-protein kinase MRCK beta (Homo sapiens) (UniProt Q9Y5S2)
[28] = target: Serine/threonine-protein kinase TAO2 (Homo sapiens) (UniProt Q9UL54)
[29] = target: Epidermal growth factor receptor (Homo sapiens) (UniProt P00533)
[30] = target: cAMP-dependent protein kinase catalytic subunit alpha (Homo sapiens) (UniProt P17612)
[31] = target: Serine/threonine-protein kinase D2 (Homo sapiens) (UniProt Q9BZL6)
Chain of Serine/threonine-protein kinase D2 (Homo sapiens) (Q9BZL6 whole entry): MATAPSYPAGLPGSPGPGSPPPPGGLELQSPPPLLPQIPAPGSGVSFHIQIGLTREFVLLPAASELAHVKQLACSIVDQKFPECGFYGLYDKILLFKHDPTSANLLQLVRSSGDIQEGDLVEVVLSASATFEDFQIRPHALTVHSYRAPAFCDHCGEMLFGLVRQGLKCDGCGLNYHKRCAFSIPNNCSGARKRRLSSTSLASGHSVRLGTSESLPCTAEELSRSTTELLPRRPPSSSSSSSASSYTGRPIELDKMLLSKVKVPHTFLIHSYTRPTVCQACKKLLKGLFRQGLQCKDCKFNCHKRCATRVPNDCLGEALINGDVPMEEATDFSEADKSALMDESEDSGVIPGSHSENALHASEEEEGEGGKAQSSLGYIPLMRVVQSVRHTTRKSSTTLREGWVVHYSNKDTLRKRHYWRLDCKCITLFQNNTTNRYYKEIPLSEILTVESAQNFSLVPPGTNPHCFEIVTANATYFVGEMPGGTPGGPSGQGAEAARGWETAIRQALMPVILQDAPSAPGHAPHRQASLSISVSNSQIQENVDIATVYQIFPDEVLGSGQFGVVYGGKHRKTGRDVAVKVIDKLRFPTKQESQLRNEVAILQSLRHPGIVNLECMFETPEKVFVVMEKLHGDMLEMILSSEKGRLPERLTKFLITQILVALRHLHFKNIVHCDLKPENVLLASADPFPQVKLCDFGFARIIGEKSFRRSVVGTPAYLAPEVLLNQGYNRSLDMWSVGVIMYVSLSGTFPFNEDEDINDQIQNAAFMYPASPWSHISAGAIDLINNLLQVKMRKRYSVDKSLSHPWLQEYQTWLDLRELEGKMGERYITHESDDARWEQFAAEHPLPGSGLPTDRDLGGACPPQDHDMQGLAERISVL

[32] = target: Uncharacterized serine/threonine-protein kinase SBK3 (Homo sapiens) (UniProt P0C264)
[33] = target: Misshapen-like kinase 1 (Homo sapiens) (UniProt Q8N4C8)
[34] = target: Myosin light chain kinase 2, skeletal/cardiac muscle (Homo sapiens) (UniProt Q9H1R3)
[35] = target: Serine/threonine-protein kinase MAK (Homo sapiens) (UniProt P20794)
[36] = target: Bone morphogenetic protein receptor type-1B (Homo sapiens) (UniProt O00238)
[37] = target: Tyrosine-protein kinase BTK (Homo sapiens) (UniProt Q06187)
[38] = target: Serine/threonine-protein kinase PAK 3 (Homo sapiens) (UniProt O75914)
[39] = target: Serine/threonine-protein kinase ULK3 (Homo sapiens) (UniProt Q6PHR2)
[40] = target: Mitogen-activated protein kinase kinase kinase kinase 2 (Homo sapiens) (UniProt Q12851)
[41] = target: Serine/threonine-protein kinase N1 (Homo sapiens) (UniProt Q16512)
[42] = target: Myosin light chain kinase family member 4 (Homo sapiens) (UniProt Q86YV6)
Chain of Myosin light chain kinase family member 4 (Homo sapiens) (Q86YV6 whole entry): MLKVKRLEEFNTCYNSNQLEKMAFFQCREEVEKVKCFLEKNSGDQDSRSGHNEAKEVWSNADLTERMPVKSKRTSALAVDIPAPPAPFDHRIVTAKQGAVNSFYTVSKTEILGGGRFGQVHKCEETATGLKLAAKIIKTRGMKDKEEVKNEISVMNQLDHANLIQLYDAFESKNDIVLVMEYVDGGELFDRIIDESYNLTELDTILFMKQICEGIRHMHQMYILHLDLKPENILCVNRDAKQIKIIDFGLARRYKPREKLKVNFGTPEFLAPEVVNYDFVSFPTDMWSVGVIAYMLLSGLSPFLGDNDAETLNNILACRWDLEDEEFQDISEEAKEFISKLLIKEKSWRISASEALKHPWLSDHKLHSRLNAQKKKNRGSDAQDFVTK

[43] = target: Serine/threonine-protein kinase PknB (Mycobacterium tuberculosis) (UniProt P9WI81)
[44] = target: NUAK family SNF1-like kinase 1 (Homo sapiens) (UniProt O60285)
[45] = target: Phosphatidylinositol 4-kinase beta (Homo sapiens) (UniProt Q9UBF8)
[46] = Compound concentration 100.0 nM
[47] = Compound concentration 1000.0 nM

Chain of Phosphatidylinositol 5-phosphate 4-kinase type-2 gamma (Homo sapiens) (Q8TBX8 whole entry): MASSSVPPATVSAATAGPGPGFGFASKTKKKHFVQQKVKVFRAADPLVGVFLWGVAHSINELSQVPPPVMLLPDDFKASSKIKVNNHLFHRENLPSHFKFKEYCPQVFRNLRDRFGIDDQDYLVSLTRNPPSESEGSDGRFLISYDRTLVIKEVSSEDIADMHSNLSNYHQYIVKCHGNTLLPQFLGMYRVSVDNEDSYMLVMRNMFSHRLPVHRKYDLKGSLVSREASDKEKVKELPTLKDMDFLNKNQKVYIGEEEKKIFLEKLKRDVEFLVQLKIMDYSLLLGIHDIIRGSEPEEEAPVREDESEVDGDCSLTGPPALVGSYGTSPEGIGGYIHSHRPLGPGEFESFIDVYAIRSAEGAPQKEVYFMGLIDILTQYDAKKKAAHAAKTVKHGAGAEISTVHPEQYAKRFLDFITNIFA

CNC(=O)c1ccc(Nc2ncc(C(F)(F)F)c(NCc3nccnc3N(C)S(C)(=O)=O)n2)cc1 [DEFACTINIB]
residual activity [1, 46]: 40% | residual activity [2, 46]: 67% | residual activity [3, 46]: 81% | residual activity [4, 46]: 47% | residual activity [5, 46]: 94% | residual activity [6, 46]: 65% | residual activity [7, 46]: 78% | residual activity [8, 46]: 100% | residual activity [9, 46]: 100% | residual activity [10, 46]: 86% | residual activity [11, 46]: 94% | residual activity [12, 46]: 69% | residual activity [13, 46]: 76% | residual activity [14, 46]: 83% | residual activity [15, 46]: 49% | residual activity [16, 46]: 100% | residual activity [17, 46]: 100% | residual activity [18, 46]: 100% | residual activity [19, 46]: 58% | residual activity [20, 46]: 85% | residual activity [21, 46]: 73% | residual activity [22, 46]: 30% | residual activity [23, 46]: 80% | residual activity [24, 46]: 69% | residual activity [25, 46]: 75% | residual activity [26, 46]: 71% | residual activity [27, 46]: 90% | residual activity [28, 46]: 92% | residual activity [29, 46]: 88% | residual activity [30, 46]: 100% | residual activity [31, 46]: 100% | residual activity [32, 46]: 100% | residual activity [33, 46]: 44% | residual activity [34, 46]: 63% | residual activity [35, 46]: 85% | residual activity [36, 46]: 65% | residual activity [37, 46]: 83% | residual activity [38, 46]: 100% | residual activity [39, 46]: 75% | residual activity [40, 46]: 100% | residual activity [41, 46]: 100% | residual activity [42, 46]: 100% | residual activity [43, 46]: 69% | residual activity [44, 46]: 31% | residual activity [45, 46]: 99%

CN(c1ccnc(CNc2nc(Nc3ccc4c(c3)CC(=O)N4)ncc2C(F)(F)F)n1)S(C)(=O)=O [PF-00911705]
residual activity [1, 47]: 42% | residual activity [2, 47]: 63% | residual activity [3, 47]: 2.3% | residual activity [4, 47]: 1.2% | residual activity [5, 47]: 22% | residual activity [6, 47]: 9.7% | residual activity [7, 47]: 71% | residual activity [8, 47]: 100% | residual activity [9, 47]: 79% | residual activity [10, 47]: 66% | residual activity [11, 47]: 81% | residual activity [12, 47]: 26% | residual activity [13, 47]: 81% | residual activity [14, 47]: 45% | residual activity [15, 47]: 79% | residual activity [16, 47]: 68% | residual activity [17, 47]: 93% | residual activity [18, 47]: 100% | residual activity [19, 47]: 81% | residual activity [20, 47]: 76% | residual activity [21, 47]: 79% | residual activity [22, 47]: 21% | residual activity [23, 47]: 93% | residual activity [24, 47]: 50% | residual activity [25, 47]: 21% | residual activity [26, 47]: 90% | residual activity [27, 47]: 100% | residual activity [28, 47]: 58% | residual activity [29, 47]: 74% | residual activity [30, 47]: 81% | residual activity [31, 47]: 92% | residual activity [32, 47]: 100% | residual activity [33, 47]: 53% | residual activity [34, 47]: 53% | residual activity [35, 47]: 100% | residual activity [36, 47]: 3.6% | residual activity [37, 47]: 63% | residual activity [38, 47]: 88% | residual activity [39, 47]: 25% | residual activity [40, 47]: 39% | residual activity [41, 47]: 43% | residual activity [42, 47]: 35% | residual activity [43, 47]: 80% | residual activity [44, 47]: 21% | residual activity [45, 47]: 76%

— ChEMBL document CHEMBL4507299, “Data for DCP probe PF-04554878” (2021)
